Reference: US20170304236A1, “ANTIALLERGIC AGENT” (TOHOKU UNIVERSITY, priority 2015, published 2017)

How the values were obtained:
TSLP mRNA = TSLP mRNA expression in stimulated HaCaT cells (real-time PCR); assay type: cell-based, human; settings: 16D10 10 and 100 μM, 4 hours
From the text: […] […] Forward: [NT], Reverse: [NT] rRNA forward: [NT], Reverse: [NT].

TSLP [1] = assay: TSLP production by TNF-α stimulation in PAM212 cells (ELISA); assay type: cell-based, mouse; settings: TNF-α 30 ng/ml, 16D10 1, 3 and 10 μM, 48 hours
Experimental: After the culture, TSLP in the culture solution was measured by EILSA.

TSLP [2] = assay: LPS-induced air pouch inflammation in Balb/c mouse; assay type: in vivo; settings: 8 hours after administration into the air pouch
Experimental: (§1) 500 μl of air was subcutaneously injected into the back of a Balb/c mouse (6-week-old, male, SLC) to form an air pouch (day 1). Further, 500 μl each of air was injected into the air pouch on day 2, day 5, and day 7. 24 hours after that, 300 μl of a solution prepared by dissolving LPS at 10 ng/ml in 2% (w/v) CMC-Na physiological saline that had been subjected to high-pressure steam sterilization and further dissolving penicillin G potassium and streptomycin sulfate at 0.1 mg/ml each therein was injected into the air pouch to induce inflammation. […]
8 hours after the administration of the solution into the air pouch, the mouse was killed through blood removal by cutting the carotid artery under anesthesia. 300 μl of physiological saline was injected into the air pouch so as to be mixed with air pouch internal fluid, and then the air pouch internal fluid was collected and its weight was measured. An infiltrating leukocyte count was measured with a hemocytometer after the collected air pouch internal fluid had been diluted with physiological saline as appropriate. […] The supernatant was collected, and its TSLP concentration was measured with Mouse TSLP DuoSet (trademark) ELISA (R&D Systems) in accordance with an accompanying protocol. […]

TSLP [3] = assay: OVA air pouch model in ICR mouse; assay type: in vivo
Experimental: as §1, with “an ICR” for “a Balb/c”, “ovalbumin (OVA)” for “LPS”, “100 μg/0.3 ml” for “10 ng/ml”
8 hours after the administration of the solution into the air pouch, the mouse was killed through blood removal by cutting the carotid artery under anesthesia. 300 μl of physiological saline was injected into the air pouch so as to be mixed with air pouch internal fluid, and then the air pouch internal fluid was collected and its weight was measured. Its TSLP concentration was measured with Mouse TSLP DuoSet (trademark) ELISA (R&D Systems) in accordance with an accompanying protocol. 14 days after the administration of the solution into the air pouch, blood was collected, and the amount of OVA-specific IgE in serum was measured with an ELISA kit (Anti-ovalbumin IgE (mouse) EIA kit (Cayman 500840)).

TSLP [4] = assay: TSLP production in KCMH-1 cells (ELISA); assay type: cell-based, mouse; settings: 24 hours, culture supernatant
Experimental: KCMH-1 cells (J. Immunol. Methods 402: 9-14 (2013)) were suspended in 10% FBS-containing MEM-α at 1.0×10^5 cells/mL.
The culture supernatant was collected, and a TSLP amount was measured with Mouse TSLP DuoSet (trademark) ELISA (R&D Systems).

various kinases = assay: Off-chip Mobility Shift Assay kinase panel (Carna Biosciences); assay type: biochemical; settings: 16D10 at 10 μM
Experimental: Carna Biosciences, Inc. was entrusted to measure the effect of the test compound 16D10 at 10 μM on the activity of each kinase by Off-chip Mobility Shift Assay (MSA) described on the website of Carna Biosciences, Inc. (http://www.carnabio.com/output/pdf/ProfilingProfilingBook_ja. pdf). Specifically, the measurement was performed by the following method.
The test compound is dissolved in and diluted with DMSO to a 100-fold concentration. Then, the solution is diluted 25-fold with assay buffer to prepare a test compound solution. A control is similarly prepared.
(1) […] of a 4-fold compound solution, 5 mL of a 4-fold Substrate/ATP/Metal solution, and […] of a 2-fold kinase solution are prepared with assay buffer (20 mM HEPES, 0.01% Triton X-100, 2 mM DTT, pH 7.5), and are mixed and incubated in a polypropylene 384-well plate at room temperature for from 1 hour or 5 hours* (*the reaction time is set depending on the kinase); (2) […] of termination buffer (QuickScout Screening Assist MSA; Carna Biosciences) is added to each well; (3) the reaction mixture is applied to a LabChip™ system (PerkinElmer), and the peaks of a product and a substrate peptide are separated and quantified; and (4) a kinase reaction is evaluated on the basis of a product ratio (P/(P+S)) calculated from the peak heights of the product (P) and the substrate (S) peptide.

NF-κB [5] = assay: NF-κB luciferase reporter assay in HaCaT cells; assay type: cell-based, human; settings: TNF-α 100 ng/ml, 2 hours, 16D10 10 or 100 μM, TPCA-1 10 μM
Experimental: The transfection of Path Detect pNF-κB-Luc Plasmid (Stratagane) was performed with X-tremeGENE HP DNA Transfection Reagent in accordance with an accompanying protocol. Human keratinocyte HaCaT cells were seeded at 0.65×10^5 cells/ml into a 12-well plate (Falcon (trademark)), and cultured for 24 hours. […], first, to 50 μl of Opti-MEM at from 15° C. to 25° C., a 500 ng/μl reporter plasmid solution and a 100 ng/μl pGL4.74[hRluc/TK] Vector solution were added at 1 μl each. Next, 1. 5 μl of X-tremeGENE HP DNA Transfection Reagent was added, and the contents were lightly mixed by inversion and then left to standstill at room temperature for 15 minutes to form a transfection complex. Further, the culture supernatant was removed from the cells that had been cultured for 24 hours, and the cells were washed with PBS. After that, 950 μl of 10% FBS-containing MEMα was added to each well. […]
(§2) The measurement of luciferase activity was performed with Dual-Luciferase (trademark) Reporter Assay System in accordance with an accompanying protocol. […] Immediately after that, a Firefly luciferase luminescence integrated value for 10 seconds was calculated with AB-2200-R Luminescencer PSN (ATTO Corporation). After that, 50 μl of Stop&Glo reagent was added and the contents were lightly mixed, and then a Renilla luciferase luminescence integrated value for 10 seconds was measured.

IKK, IκB, STAT6 = assay: Western blot of NF-κB-activating signal and STAT6 phosphorylation in HaCaT cells; assay type: cell-based, human; settings: 10 minutes; for TNF-α+IL-4 stimulation-induced increase in phosphorylation of IKK / TNF-α+IL-4 stimulation-induced reduction in inhibitory protein IκB of NF-κB: 16D10 100 μM
NF-κB [6] = assay: NF-κB luciferase reporter assay in KCMH-1 cells; assay type: cell-based, mouse; settings: 16D10 10 μM
Experimental: The transfection of Path Detect pNF-κB-Luc Plasmid (Stratagane) was performed with X-tremeGENE HP DNA Transfection Reagent in accordance with an accompanying protocol. Mouse keratinocyte KCMH-1 cells were seeded at 1×10^5 cells/ml into a 12-well plate (Falcon (trademark)), and cultured for 24 hours. The following day, first, to 50 μl of Opti-MEM at from 15° C. to 25° C., a 500 ng/μl reporter plasmid solution and a 100 ng/μl pGL4.74 [hRluc/TK] Vector solution were added at 1 μl each. Next, 1.5 μl of X-tremeGENE HP DNA Transfection Reagent was added, and the contents were lightly mixed by inversion and then left to stand still at room temperature for 15 minutes to form a transfection complex. Further, the culture supernatant was removed from the cells that had been cultured for 24 hours, and the cells were washed with PBS. After that, 950 μl of 10% FBS-containing MEMα was added to each well. […]
as §2

Row | Compound | expression of TSLP mRNA (TSLP mRNA; Poly(I:C) 50 μg/ml stimulation) | expression of TSLP mRNA (TSLP mRNA; TNF-α 100 ng/ml stimulation) | TSLP production by TNF-α (TSLP [1]) | TSLP concentration in air pouch internal fluid (TSLP [2]) | infiltrating leukocyte count (TSLP [2]) | OVA-specific IgE in serum (TSLP [3]; 14 days after administration into the air pouch) | TSLP production by OVA (TSLP [3]; air pouch internal fluid, 8 hours after administration) | TSLP production-suppressing ability (TSLP [4]) | activity of each kinase (various kinases) | transcriptional activity of NF-κB (NF-κB [5]) | TNF-α+IL-4 stimulation-induced increase in phosphorylation of IKK (IKK, IκB, STAT6) | TNF-α+IL-4 stimulation-induced reduction in inhibitory protein IκB of NF-κB (IKK, IκB, STAT6) | increase in phosphorylation of STAT6 by stimulation (IKK, IκB, STAT6; TNF-α + IL-4, 16D10 100 μM) | transcriptional activity of NF-κB (NF-κB [6]; KCMH-1 cells, 24 hours) | TSLP production (NF-κB [6]; KCMH-1 mouse keratinocyte cell line)
1 | COc1ccc(OC)c(/C=C/C(=O)c2cc(OC)c(OC)cc2CCNC(C)=O)c1 [16D10, (E)-N-[2-[2-[3-(2,5-dimethoxyphenyl)-1-oxo-2-propen-1-yl]-4,5-dimethoxyphenyl]ethyl]acetamide] | suppressed | suppressed | suppressed TSLP production by TNF-α in a concentration-dependent manner | significantly suppressed TSLP production | did not reduce infiltrating leucocytes | suppressed the production of OVA-specific IgE | significantly suppressed TSLP production by OVA | extremely high TSLP production-suppressing ability | did not suppress the activity of each kinase analyzed | did not suppress the activity | not suppressed | not suppressed | did not suppress | without suppressing the transcriptional activity of NF-κB | suppressed TSLP production
2 | NC(=O)Nc1sc(-c2ccc(F)cc2)cc1C(N)=O [TPCA-1, [5-(p-Fluorophennyl)-2-ureido]thiophene-3-carboxamide, reference compound] | – | – | – | – | – | – | – | – | – | suppressed the transcriptional activity of NF-κB | suppressed | suppressed | – | – | –
